Test results: patent publication US4939124A, “Treatment and diagnosis of dementia” (Laboratorios Serono S.A., priority 1988, dated 1990)

How the values were obtained:
[1] = tested on: female in-patients with primary degenerative dementia (Alzheimer like); assay: 8-day GRF (1-29) NH2 therapy, MMS Folstein test and Crichton's scale; type: in vivo, human; conditions: for MMS Folstein and Crichton's scale scores and clinical findings: 8 days, 12 hours, 24 hours, 7 days
Procedure: Twenty female in-patients with primary degenerative dementia (Alzheimer like) aged 67-84 years were divided in two therapy-groups with GRF (1-29) NH2. All patients were treated with this product for 8 days with either of the following schedules: (I) 250 mcg s.c. twice daily (II) 50 mcg i.v. twice daily Therapy was started after a 15-day wash-out period for psychotropic-drugs. Evolution of patients was assessed using the MMS Folstein test and Chrichton's scale test at 12 hours, 24 hours and 7 days after starting with GRF. The statistical evaluation was made using Friedman test with a risk level p<0,01 (highly significant differences).

growth hormone (GH) = assay: GRF test: GRF-induced plasma GH response (radioimmunoassay); type: in vivo, human; conditions: for GRF-induced GH response: GRF(1-44)NH2 100 mcg i.v. bolus
From the text: The subjects were divided into three groups:
(a) controls (N =9): 5 females and 4 males (age =70.10±2.76 years; range =66-75);
(b) inpatients with early onset senile dementia of the Alzheimer type (EOSDAT) (N =10): 5 females and 5 males (age 65.00±3.31 years; range =57-69); and
(c) inpatients with late onset senile dementia of the Alzheimer type (LOSDAT) (N =10): 5 females and 5 males (age =75.70±3.77 years; range =70-82).
All the SDAT patients met the DSM-III criteria for primary degenerative dementia and rigorous diagnostic criteria for SDAT. […] In LOSDAT, the onset of the disease occurred after the age of 60. The degree of severity of the dementia was assessed with Hasegawa's Dementia Rating Scale (DRS) (Hasegawa K., Inoue K. "An investigation of dementia rating scale for the elderly." Seishinigaku 16:965-969, 1974), Folstein's Mini-Mental State (MMS) Test (Folstein M. F., Folstein S., McHugh P. "Mini-mental state: a practical method for grading the cognitive state of patients for the clinician." J. Psychiat. Res. 12:189-198, 1975) and a modified model of the Brief Cognitive Rating Scale (BCRS) and Functional Assessment Stages (FAST) of Reisberg (Reisberg B., Ferris S. H., De Leon M. J. "Senile dementia of the Alzheimer type: Diagnosis and differential diagnostic features with special reference to functional assessment staging." in: Traber J., Gispen W. H. (Ed). Senile dementia of the Alzheimer type. pp 18-37, Springer-Verlag, Berlin, 1985). Concomitant pathology other than SDAT was discarded under a careful screening of the subjects with CT Scan, EEG, ECG and complementary laboratory data. Current diagnosis or history of SDM-III major affective disorder or schizophrenia as well as history of endocrine disease were criteria for exclusion. All of the control subjects were free of psychiatric and endocrine illness. All subjects included had been drug-free for a minimum of 7 days before testing.
A 21-gauge indwelling venous needle with an attached three-way stopcook was inserted into the antecubital vein. Baseline blood samples for GH determination were collected immediately before testing. GRF(1-44)NH2was then injected as an intravenous bolus (100 mcg), and blood samples were obtained at 15, 30, 45, 60, 90 and 120 minutes after injection for determination of GH concentrations in plasma. The plasma GH levels were measured by radioimmunoassay using a commercial GH-RIA-Kit (Dainabot Co. Ltd. Tokyo). The intra- and inter-assay coefficients of variation were 6.9% and 10.6%, respectively.
The results were analyzed statistically by the Student's test, analysis of variance (ANOVA) and the Mann-Whitney test using a NEC PC-9801VM2 computer.

## growth hormone releasing factor [GRF]
[1]; GRF (1-29) NH2 50 mcg i.v. vs 250 mcg s.c. twice daily
  comparison of i.v. and s.c. groups (increase in scores and clinical findings): more important in the group with i.v. GRF administration than in the one with s.c. administration
[1]; GRF (1-29) NH2, both groups
  persistence of effect: remains significant over the whole 7 days of treatment
  start of effect after administration: 12 h
[1]; GRF (1-29) NH2 administration discontinued
  sphincter control and general psychomotricity after discontinuation: returned to pretreatment situation
[1]; during treatment with GRF (1-29) NH2
  sphincter control and general psychomotricity (nurse's report): improvement
[1]; group I: GRF (1-29) NH2 250 mcg s.c. twice daily
  MMS Folstein and Crichton's scale scores and clinical findings: significant increase
[1]; group II: GRF (1-29) NH2 50 mcg i.v. twice daily
  MMS Folstein and Crichton's scale scores and clinical findings: significant increase
Growth hormone (GH); CONTROL (females), 0 min (basal, before GRF(1-44)NH2 100 mcg i.v.)
  plasma GH: 1.03 ± 0.94 ng/mL
Growth hormone (GH); CONTROL (females), 15 min after GRF(1-44)NH2 100 mcg i.v.
  plasma GH: 3.09 ± 1.58 ng/mL
Growth hormone (GH); CONTROL (females), 30 min after GRF(1-44)NH2 100 mcg i.v.
  plasma GH: 3.68 ± 2.09 ng/mL
Growth hormone (GH); CONTROL (females), 45 min after GRF(1-44)NH2 100 mcg i.v.
  plasma GH: 4.28 ± 3.38 ng/mL
Growth hormone (GH); CONTROL (females), 60 min after GRF(1-44)NH2 100 mcg i.v.
  plasma GH: 2.97 ± 1.96 ng/mL
Growth hormone (GH); CONTROL (females), 90 min after GRF(1-44)NH2 100 mcg i.v.
  plasma GH: 2.04 ± 1.38 ng/mL
Growth hormone (GH); CONTROL (females), 120 min after GRF(1-44)NH2 100 mcg i.v.
  plasma GH: 1.10 ± 0.95 ng/mL
Growth hormone (GH); CONTROL (males), 0 min (basal, before GRF(1-44)NH2 100 mcg i.v.)
  plasma GH: 1.07 ± 0.92 ng/mL
Growth hormone (GH); CONTROL (males), 15 min after GRF(1-44)NH2 100 mcg i.v.
  plasma GH: 2.21 ± 1.87 ng/mL
Growth hormone (GH); CONTROL (males), 30 min after GRF(1-44)NH2 100 mcg i.v.
  plasma GH: 3.16 ± 2.76 ng/mL
Growth hormone (GH); CONTROL (males), 45 min after GRF(1-44)NH2 100 mcg i.v.
  plasma GH: 5.17 ± 3.46 ng/mL
Growth hormone (GH); CONTROL (males), 60 min after GRF(1-44)NH2 100 mcg i.v.
  plasma GH: 3.17 ± 2.61 ng/mL
Growth hormone (GH); CONTROL (males), 90 min after GRF(1-44)NH2 100 mcg i.v.
  plasma GH: 1.88 ± 1.87 ng/mL
Growth hormone (GH); CONTROL (males), 120 min after GRF(1-44)NH2 100 mcg i.v.
  plasma GH: 0.91 ± 0.87 ng/mL
Growth hormone (GH); EOSDAT
  delay of GH response relative to the small peak in control subjects: about 15 minutes
Growth hormone (GH); EOSDAT (females), 0 min (basal, before GRF(1-44)NH2 100 mcg i.v.)
  plasma GH: 1.92 ± 1.52 ng/mL
Growth hormone (GH); EOSDAT (females), 15 min after GRF(1-44)NH2 100 mcg i.v.
  plasma GH: 2.23 ± 1.90 ng/mL
Growth hormone (GH); EOSDAT (females), 30 min after GRF(1-44)NH2 100 mcg i.v.
  plasma GH: 6.26 ± 2.05 ng/mL
Growth hormone (GH); EOSDAT (females), 45 min after GRF(1-44)NH2 100 mcg i.v.
  plasma GH: 14.86 ± 3.57 ng/mL
Growth hormone (GH); EOSDAT (females), 60 min after GRF(1-44)NH2 100 mcg i.v.
  plasma GH: 19.74 ± 4.86 ng/mL
Growth hormone (GH); EOSDAT (females), 90 min after GRF(1-44)NH2 100 mcg i.v.
  plasma GH: 11.28 ± 5.72 ng/mL
Growth hormone (GH); EOSDAT (females), 120 min after GRF(1-44)NH2 100 mcg i.v.
  plasma GH: 5.09 ± 3.01 ng/mL
Growth hormone (GH); EOSDAT (males), 0 min (basal, before GRF(1-44)NH2 100 mcg i.v.)
  plasma GH: 1.99 ± 1.67 ng/mL
Growth hormone (GH); EOSDAT (males), 15 min after GRF(1-44)NH2 100 mcg i.v.
  plasma GH: 2.70 ± 1.92 ng/mL
Growth hormone (GH); EOSDAT (males), 30 min after GRF(1-44)NH2 100 mcg i.v.
  plasma GH: 5.49 ± 1.91 ng/mL
Growth hormone (GH); EOSDAT (males), 45 min after GRF(1-44)NH2 100 mcg i.v.
  plasma GH: 6.87 ± 2.84 ng/mL
Growth hormone (GH); EOSDAT (males), 60 min after GRF(1-44)NH2 100 mcg i.v.
  plasma GH: 11.52 ± 2.82 ng/mL
Growth hormone (GH); EOSDAT (males), 90 min after GRF(1-44)NH2 100 mcg i.v.
  plasma GH: 7.41 ng/mL
Growth hormone (GH); EOSDAT (males), 120 min after GRF(1-44)NH2 100 mcg i.v.
  plasma GH: 2.73 ± 1.71 ng/mL
Growth hormone (GH); EOSDAT females
  rise of plasma GH levels after GRF injection: 19.74 ± 4.86 ng·mL
Growth hormone (GH); EOSDAT males
  rise of plasma GH levels after GRF injection: 11.52 ± 2.82 ng/mL
Growth hormone (GH); EOSDAT responders
  rise of plasma GH levels after GRF injection, individual range: 5.5 to 28.75 ng/mL
Growth hormone (GH); EOSDAT, 60 minutes after GRF(1-44)NH2 100 mcg i.v. bolus
  maximum peak of plasma GH: 15.61 ± 5.71 ng/mL
Growth hormone (GH); LOSDAT (females), 0 min (basal, before GRF(1-44)NH2 100 mcg i.v.)
  plasma GH: 1.09 ± 1.01 ng/mL
Growth hormone (GH); LOSDAT (females), 15 min after GRF(1-44)NH2 100 mcg i.v.
  plasma GH: 2.04 ± 1.01 ng/mL
Growth hormone (GH); LOSDAT (females), 30 min after GRF(1-44)NH2 100 mcg i.v.
  plasma GH: 3.65 ± 2.35 ng/mL
Growth hormone (GH); LOSDAT (females), 45 min after GRF(1-44)NH2 100 mcg i.v.
  plasma GH: 4.68 ± 3.18 ng/mL
Growth hormone (GH); LOSDAT (females), 60 min after GRF(1-44)NH2 100 mcg i.v.
  plasma GH: 4.97 ± 3.86 ng/mL
Growth hormone (GH); LOSDAT (females), 90 min after GRF(1-44)NH2 100 mcg i.v.
  plasma GH: 4.04 ± 3.22 ng/mL
Growth hormone (GH); LOSDAT (females), 120 min after GRF(1-44)NH2 100 mcg i.v.
  plasma GH: 2.44 ± 2.05 ng/mL
Growth hormone (GH); LOSDAT (males), 0 min (basal, before GRF(1-44)NH2 100 mcg i.v.)
  plasma GH: 0.95 ± 0.98 ng/mL
Growth hormone (GH); LOSDAT (males), 15 min after GRF(1-44)NH2 100 mcg i.v.
  plasma GH: 2.13 ± 0.94 ng/mL
Growth hormone (GH); LOSDAT (males), 30 min after GRF(1-44)NH2 100 mcg i.v.
  plasma GH: 2.81 ± 1.90 ng/mL
Growth hormone (GH); LOSDAT (males), 45 min after GRF(1-44)NH2 100 mcg i.v.
  plasma GH: 3.61 ± 3.51 ng/mL
Growth hormone (GH); LOSDAT (males), 60 min after GRF(1-44)NH2 100 mcg i.v.
  plasma GH: 4.09 ± 2.56 ng/mL
Growth hormone (GH); LOSDAT (males), 90 min after GRF(1-44)NH2 100 mcg i.v.
  plasma GH: 3.08 ± 2.22 ng/mL
Growth hormone (GH); LOSDAT (males), 120 min after GRF(1-44)NH2 100 mcg i.v.
  plasma GH: 1.64 ± 0.82 ng/mL
Growth hormone (GH); LOSDAT
  GRF-induced GH response: absent
Growth hormone (GH); control subjects
  GRF-induced GH response: absent
